From patent US7615533B2, “TPO peptide compounds for treatment of anemia” (Janssen Pharmaceutica N.V., priority 2004, dated 2009)
Entries after “also recorded” stand apart in the source; their conditions may differ. Non-standard residues stand in square brackets, D forms with d. No end group written: not given here. 2Nal = N[C@@H](Cc1ccc2ccccc2c1)C(=O)O; Sar = CNCC(=O)O

Experiments:
[1] = test system: carboplatin treated mice; assay: Example 1: increasing doses one day after carboplatin, anemia in mice; type: in vivo, BALB/c mouse
Protocol: (§1) The effects of PEGylated TPO Compound No. 1 on mice treated with carboplatin were observed. For all examples herein, a 10 mg/ml stock solution of PEGylated TPO Compound No. 1 was prepared in sterile saline. For mixing, the preparation was placed on a gyratory shaker for 15 mm. at 200 rpm. This method was used to dissolve PEGylated TPO Compound No. 1 without foaming. The stock was filtered using a GV Millex (0.22 μm) filter. Dosing solutions were then prepared from this stock using sterile saline. The stock and dosing solutions were prepared fresh on the day of use.
The effect of PEGylated TPO Compound No. 1 on the duration and severity of anemia following treatment of mice with carboplatin as determined by changes in hemoglobin levels, red blood cell count and hematocrit, was observed. For this study, increasing amounts of PEGylated TPO Compound No. 1 were administered to mice one day following a carboplatin dose to characterize a possible dose-dependent effect on various red blood cell parameters.
The groups of mice were treated with either carboplatin or vehicle (Phosphate Buffered Saline, PBS) by intraperitoneal administration on Days −2 and −1 as delineated below. The optimal dose of carboplatin used to induce thrombocytopenia in the BALB/c mouse strain was previously determined to be a fractionated total dose of 120 mg/kg given as two consecutive daily injections (i.e., 2×60 mg/kg). One day following the second dose of carboplatin, groups of mice were treated with PEGylated TPO Compound No. 1 or vehicle (sterile saline, SS, preservative-free 0.90% sodium chloride) by IV (bolus) injection as delineated in Table 1. The dose was administered on a per-weight basis (100 μl/10 g body weight).
(§2) On Days 5, 7, 9 and 11, five mice in each test group were weighed and then euthanised using CO2-asphyxiation and exsanguinations via cardiac puncture. The blood samples were transferred to separate EDTA (lavender-top) microcontainers for hematologic evaluation. Groups of control mice (5) were processed on Days 5 and 11. The data are presented graphically as group means +SEM.

[2] = test system: carboplatin treated mice; assay: Example 2: dosing before and/or after carboplatin, hematological parameters in mice; type: in vivo, BALB/c mouse
Protocol: as §1
The possibility that PEGylated TPO Compound No. 1 may sensitize bone marrow hematopoietic stem cells of mice to the toxic effects of carboplatin treatment was examined. For this study, a dose of PEGylated TPO Compound No. 1 was administered to the mice seven days prior to the carboplatin dose or immediately after carboplatin treatment. An additional group was treated with PEGylated TPO Compound No. 1 both prior to and after carboplatin administration. The effect of these dosing regimens on hematological parameters was also observed.
The groups of mice were treated with either carboplatin or vehicle (Phosphate Buffered Saline, PBS) by ip administration on Days 7 and 8 as delineated below. The optimal dose of carboplatin used to induce thrombocytopenia in the BALB/c mouse strain was previously determined to be a fractionated total dose of 120 mg/kg given as two consecutive daily injections (i.e., 2×60 mg/kg). Seven days prior to the first carboplatin dose or one (1) hour after the second dose of carboplatin, groups of mice were treated with PEGylated TPO Compound No. 1 (300 μg/kg) or vehicle (sterile saline, SS, preservative-free 0.9% sodium chloride) by IV (bolus) injection as delineated in Table 2. An additional group was treated with PEGylated TPO Compound No. 1 both before (Day 0) and after (Day 8, t=1 h) the carboplatin dose. All dosing was performed on a per-weight basis (100 μl/10 g body weight).
as §2, with “Days 14, 18, 22” for “Days 5, 7, 9”, “and 26,” for “and 11,”, “and exsanguination” for “and exsanguinations”, “for hematological” for “for hematologic”, “Days 14” for “Days 5”, “and 26.” for “and 11.”

[3] = test system: carboplatin treated mice; assay: Example 5: two rounds of high-dose carboplatin, hematocrit and survival of mice; type: in vivo, mouse; details: between days 4 and 18
Protocol: as §1
Groups of mice were treated with two rounds of the chemotherapeutic agent (carboplatin) ten days apart, with each round consisting of two consecutive days of carboplatin (i.e., 70 mg/kg/day administered on Days −1 & 0 and Days 10 & 11) as delineated below. The dose of carboplatin utilized for these survival studies exceeded the maximal tolerated dose for mice (i.e., 120 mg/kg; administered as 60 mg/kg/day on 2 consecutive days). One hour following the second dose of carboplatin in each round (i.e., Day 0 and 11) mice were treated with PEGylated TPO Compound No. 1 (100 μg/kg) or vehicle (sterile saline, SS, preservative-free 0.9% sodium chloride) by IV (bolus) injection as delineated below. The dose was administered on a per weight basis (100 μl/10 g body weight). […]

[4] = test system: carboplatin treated mice; assay: Example 6: mechanistic study, increasing carboplatin, hematology and brain fibrinogen/fibrin histology; type: in vivo, mouse
Protocol: as §1
For mechanistic studies, groups of mice were treated with vehicle or increasing amounts of carboplatin (i.e., 60, 70 or 80 mg/kg) for 2 consecutive days (Day −1 & Day 0). Approximately one hour following the second dose of carboplatin, groups of mice were treated with PEGylated TPO Compound No. 1 (100 μg/kg) or vehicle (sterile saline, SS, preservative-free 0.9% sodium chloride) by IV (bolus) injection as delineated in Table 5.
On Day 15, the mice in all treatment groups were euthanised using CO2-asphyxiation and exsanguinations via cardiac puncture. The blood samples were transferred to separate EDTA (lavender-top) microtainers for hematologic evaluation. In addition, several organs (including the brains) of control mice and mice treated with 2×70 mg/kg carboplatin without and with co-treatment with PEGylated TPO Compound No. 1 were isolated and processed for histological examination. Sections of these tissues were processed immunohistochemically for fibrinogen/fibrin.

N.N.O=C([O-])C1(C(=O)[O-])CCC1.[Pt+2] [carboplatin, reference compound]
decrease in hemoglobin levels ([1]; carboplatin alone 2×60 mg/kg ip, by Day 11): ~20% | decreases in hemoglobin levels, RBC counts and hematocrits ([2]; carboplatin alone 2×60 mg/kg ip, Days 18 and 22 compared to control groups): approx. 18% | body weight loss (average) ([2]; carboplatin alone, between Days 7 and 26): approximately 4% | deaths among mice not utilized for hematological evaluation ([3]; carboplatin alone 70 mg/kg/day, 2 rounds): 7 mice | mortality ([4]; 2×80 mg/kg carboplatin (alone), all of the mice, prior to study termination): either found dead or were euthanized (moribund)

Methoxypolyethyleneglycol20000-propionyl-L-Isoleucyl-L-Glutamyl-Glycyl-L-Prolyl-L-Threonyl-L-Leucyl-L-Arginyl-L-Glutaminyl-L-2-Naphthylalanyl-L-Leucyl-L-Alanyl-L-Alanyl-L-Arginyl-Sarcosyl-Ne-(methoxypolyethyleneglycol20000-propionyl-L-Isoleucyl-L-Glutamyl-Glycyl-L-Prolyl-L-Threonyl-L-Leucyl-L-Arginyl-L-Glutaminyl-L-2-Naphthylalanyl-L-Leucyl-L-Alanyl-L-Alanyl-L-Arginyl-Sarcosyl-)-Lysinamide ({methoxypolyethyleneglycol20000‑propionyl}-IEGPTLRQ[2Nal]LAAR[Sar]K[Sar]RAAL[2Nal]QRLTPGEI; also: dimer: positions 16-29 are the second 14-mer written in reverse, its Sar C-terminus joined to the K15 epsilon-amine, K15 is C-terminal lysinamide (NH2), methoxypolyethyleneglycol20000-propionyl also on Ile29 N-terminus) [PEGylated TPO Compound No. 1]
carboplatin-associated decreases in RBC count and hematocrit ([1]; 300, 1000, 3000 μg/kg iv one day after carboplatin, no statistical evaluation): inhibited | carboplatin-induced decrease in hemoglobin levels ([1]; all doses (300, 1000, 3000 μg/kg iv, one day after carboplatin 2×60 mg/kg ip), by Day 11): inhibited | body weight after carboplatin ([1]; all doses tested, 11-Day study period): enhanced the recovery of the lost body weight | altered appearance and behavior (hunched, flaccid, soiled anogenital areas) ([1]; appeared to be dose-dependent): decreased the onset, frequency and severity of these signs | carboplatin-induced changes in erythrocyte parameters ([2]; 300 μg/kg iv on Day 0 (only), seven days prior to carboplatin): failed to affect carboplatin-induced changes | carboplatin-induced decreases in hemoglobin levels, RBC counts and hematocrits ([2]; 300 μg/kg iv on Day 8 (1 hour after second carboplatin) without or with additional dose on Day 0): prevented | body weight between Days 7 and 26 ([2]; carboplatin plus various co-treatments, 300 μg/kg iv, no statistical analysis): prevented this weight loss | onset of signs (hunched, unkempt) ([2]; treatment on Day 8 without or with additional treatment on Day 0): appeared to delay the onset of these signs | severity and duration of signs (hunched, unkempt) ([2]; treatment on Days 0 and 8): decreased the severity and duration | deaths among mice not utilized for hematological evaluation ([3]; combination therapy (carboplatin 70 mg/kg/day, 2 rounds, plus 100 μg/kg iv)): 1 mouse | carboplatin-induced decreases in platelet and RBC counts ([4]; 100 μg/kg iv about one hour after second carboplatin dose, Day 15): totally inhibited | microthrombotic events in brain sections, entire dose group ([4]; 2×70 mg/kg carboplatin plus 100 μg/kg iv): single | fibrinogen/fibrin staining of small vessels in brain sections ([4]; 2×70 mg/kg carboplatin plus 100 μg/kg iv, Day 15, 70 mg/kg): appeared normal or exhibited fibrinogen/fibrin staining that was only slightly darker than the control group; also recorded: reduces fibrinogen deposition and blood clots | thrombocytopenia or anemia ([4]; 2×80 mg/kg carboplatin plus 100 μg/kg iv, Day 15): did not exhibit thrombocytopenia or anemia | survival ([4]; 2×80 mg/kg carboplatin plus 100 μg/kg iv, all of the mice): survived until the scheduled study termination
